Results: patent US20240368157A1, “FORMS AND COMPOSITIONS OF A JAK2 INHIBITOR” (Ajax Therapeutics, Inc., priority 2023, published 2024)

Key:
[1] = Dynamic vapor sorption (DVS); assay type: physicochemical; details: for Hysteresis: in % (unit assumed)
Procedure: Moisture sorption/desorption data were collected on a Surface Measurement System DVS Intrinsic instrument. Samples were not dried prior to analysis. Sorption and desorption data were collected over a range from 5% to 95% RH to 5% RH at 10% RH increments under a nitrogen purge. The equilibrium criterion used for analysis was less than 0.0100% weight change in 5 minutes with a maximum equilibration time of 3 hours. Data were not corrected for the initial moisture content of the samples.

[2] = Slurry in water at ambient temperature (XRPD); assay type: physicochemical; details: 3 days
physchem = details: water

Desorp Mass Change (%) ([1]; DVS cycle 1, target RH 5%): −0.2589%
Sorp Mass Change (%) ([1]; DVS cycle 1, target RH 5%): 0.0100%
Desorp Mass Change (%) ([1]; DVS cycle 1, target RH 15%): −0.2193%
Sorp Mass Change (%) ([1]; DVS cycle 1, target RH 15%): −0.0114%
Hysteresis ([1]; DVS cycle 1, target RH 15%): −0.2079
Desorp Mass Change (%) ([1]; DVS cycle 1, target RH 25%): −0.1841%
Sorp Mass Change (%) ([1]; DVS cycle 1, target RH 25%): −0.0296%
Hysteresis ([1]; DVS cycle 1, target RH 25%): −0.1545
Desorp Mass Change (%) ([1]; DVS cycle 1, target RH 35%): −0.1477%
Sorp Mass Change (%) ([1]; DVS cycle 1, target RH 35%): −0.0296%
Hysteresis ([1]; DVS cycle 1, target RH 35%): −0.1181
Desorp Mass Change (%) ([1]; DVS cycle 1, target RH 45%): −0.1031%
Sorp Mass Change (%) ([1]; DVS cycle 1, target RH 45%): −0.0202%
Hysteresis ([1]; DVS cycle 1, target RH 45%): −0.0829
Desorp Mass Change (%) ([1]; DVS cycle 1, target RH 55%): −0.0428%
Sorp Mass Change (%) ([1]; DVS cycle 1, target RH 55%): 0.0018%
Hysteresis ([1]; DVS cycle 1, target RH 55%): −0.0446
Desorp Mass Change (%) ([1]; DVS cycle 1, target RH 65%): 0.0238%
Sorp Mass Change (%) ([1]; DVS cycle 1, target RH 65%): 0.0282%
Hysteresis ([1]; DVS cycle 1, target RH 65%): −0.0044
Desorp Mass Change (%) ([1]; DVS cycle 1, target RH 75%): 0.0797%
Sorp Mass Change (%) ([1]; DVS cycle 1, target RH 75%): 0.0741%
Hysteresis ([1]; DVS cycle 1, target RH 75%): 0.0057
Desorp Mass Change (%) ([1]; DVS cycle 1, target RH 85%): 0.1545%
Sorp Mass Change (%) ([1]; DVS cycle 1, target RH 85%): 0.1344%
Hysteresis ([1]; DVS cycle 1, target RH 85%): 0.0201
Desorp Mass Change (%) ([1]; DVS cycle 1, target RH 95%): 0.2669%
Sorp Mass Change (%) ([1]; DVS cycle 1, target RH 95%): 0.2669%
weight gain during sorption ([1]; DVS, 5-95% RH): 0.3%
weight loss during the desorption step ([1]; DVS, 95-5% RH): 0.5%
XRPD pattern of the post-DVS sample ([1]; after DVS experiment): consistent with Form F
hygroscopicity ([1]; judged from DVS sorption/desorption): non-hygroscopic
solid form after slurry in water (XRPD) [2]: converted completely to Form C
solubility (physchem): < 1000 µg/mL
SMILES: CN(C)C(=O)Nc1cc(Oc2cnc3nc(Nc4cc(C(F)(F)F)cn(C)c4=O)n(C)c3c2C#N)ccn1 [Form F]
